What was measured:
[1] = Genotoxicity in Salmonella typhimurium TA100 at 62.5 to 1000 ug incubated for 48 to 50 hrs in presence of S9 fraction by Ames test; assay type: toxicity, subcellular, Salmonella enterica subsp. enterica serovar Typhimurium; conditions: dose 62.5-1000 µg, time 48-50 hrs
[2] = Genotoxicity in Salmonella typhimurium TA100 at 62.5 to 1000 ug incubated for 48 to 50 hrs in absence of S9 fraction by Ames test; assay type: toxicity, Salmonella enterica subsp. enterica serovar Typhimurium; conditions: in vivo; dose 62.5-1000 µg, time 48-50 hrs
[3] = Acute toxicity in Sprague-Dawley rat assessed as change in growth at 15 to 200 mg/kg, po administered every alternate days for 14 days; assay type: organism-based; conditions: in vivo, 336 h, dose 15-200 mg/kg, time 14 day
Mus musculus [4] = experiment: Antianemic activity in cisplatin-induced C57BL/6 mouse anemia model assessed as improvement in anemia at 25 mg/kg, po administered every other day for 1 month; assay type: functional; conditions: time 1 months, 730 h
Mus musculus [5] = experiment: Antianemic activity in cisplatin-induced C57BL/6 mouse anemia model assessed as improvement in anemia at 10 mg/kg, po administered every other day for 1 month; assay type: functional; conditions: time 1 months, 730 h
[6] = AUC (0 to t) in Beagle dog at 0.5 mg/kg, iv by LC-MS/MS analysis; assay type: ADME, organism-based, Canis lupus familiaris; design: dose 0.5 mg/kg; conditions: in vivo
[7] = Nephrotoxicity in Sprague-Dawley rat assessed as change in creatinine level in blood at 15 to 200 mg/kg, po administered every alternate days for 2 weeks measured on day 14; assay type: toxicity, organism-based; conditions: in vivo, 336 h, dose 15-200 mg/kg, time 14 day
[8] = Hepatotoxicity in male Sprague-Dawley rat assessed as change in albumin level at 15 to 200 mg/kg, po administered every alternate days for 2 weeks measured on day 14; assay type: toxicity, organism-based; conditions: in vivo, 336 h, dose 15-200 mg/kg, time 14 day
[9] = Acute toxicity in male Sprague-Dawley rat assessed as change in ratio of epididymis to body weight at 15 to 200 mg/kg, po administered every alternate days for 2 weeks measured on day 14; assay type: organism-based; conditions: in vivo, 336 h, dose 15-200 mg/kg, time 14 day
[10] = Acute toxicity in male Sprague-Dawley rat assessed as change in ratio of testis to body weight at 15 to 200 mg/kg, po administered every alternate days for 2 weeks measured on day 14; assay type: organism-based; conditions: in vivo, 336 h, dose 15-200 mg/kg, time 14 day
[11] = Acute toxicity in female Sprague-Dawley rat assessed as change in ratio of uterus with cervix to body weight at 15 to 200 mg/kg, po administered every alternate days for 2 weeks measured on day 14; assay type: organism-based; conditions: in vivo, 336 h, dose 15-200 mg/kg, time 14 day
[12] = Acute toxicity in Sprague-Dawley rat assessed as change in ratio of adrenal gland to body weight at 15 to 200 mg/kg, po administered every alternate days for 2 weeks measured on day 14; assay type: organism-based; conditions: in vivo, 336 h, dose 15-200 mg/kg, time 14 day
[13] = Acute toxicity in Sprague-Dawley rat assessed as change in body weight at 15 to 200 mg/kg, po administered every alternate days for 14 days; assay type: organism-based; conditions: in vivo, 336 h, dose 15-200 mg/kg, time 14 day
[14] = Acute toxicity in Sprague-Dawley rat assessed as effect on food intake at 15 to 200 mg/kg, po administered every alternate day for 14 day; assay type: organism-based; conditions: in vivo, 336 h, dose 15-200 mg/kg
Cytochrome P450 2C9 = Cytochrome P450 2C9 (Homo sapiens, UniProt P11712); experiment: Inhibition of CYP2C9 (unknown origin) using diclofenac as substrate preincubated for 5 mins followed by addition of NADPH measured after 20 mins by LC-MS/MS analysis; assay type: ADME
[15] = Half-life in human L02 cells at 100 uM incubated up to 120 mins by LC-MS/MS analysis; assay type: ADME, cell-based
[16] = Half-life in monkey liver microsome at 1 uM preincubated for 5 mins followed by NADPH addition measured up to 120 mins by LC-MS/MS analysis; assay type: ADME, Macaca mulatta; conditions: rhesus monkey, liver microsomes, time <=125 min
[17] = Intrinsic clearance in monkey liver microsome at 1 uM preincubated for 5 mins followed by NADPH addition measured up to 120 mins by LC-MS/MS analysis; assay type: ADME, Macaca mulatta; conditions: rhesus monkey, microsomes, 2 h, time <=125 min
[18] = Intrinsic clearance in dog liver microsome at 1 uM preincubated for 5 mins followed by NADPH addition measured up to 120 mins by LC-MS/MS analysis; assay type: ADME, Canis lupus familiaris; conditions: microsomes, 2 h, time <=125 min
[19] = AUC (0 to infinity) in Beagle dog at 0.5 mg/kg, iv by LC-MS/MS analysis; assay type: ADME, organism-based, Canis lupus familiaris; design: time infinity, route intravenous, dose 0.5 mg/kg; conditions: in vivo
[20] = AUC (0 to t) in Beagle dog at 2 mg/kg, ig by LC-MS/MS analysis; assay type: ADME, organism-based, Canis lupus familiaris; design: dose 2 mg/kg; conditions: in vivo, po
[21] = Cmax in Beagle dog at 2 mg/kg, ig by LC-MS/MS analysis; assay type: ADME, organism-based, Canis lupus familiaris; design: route […], dose 2 mg/kg; conditions: in vivo, po
[22] = Half-life in Sprague-Dawley rat at 1 mg/kg, iv by LC-MS/MS analysis; assay type: ADME, organism-based; conditions: in vivo
[23] = Clearance in Sprague-Dawley rat at 1 mg/kg, iv by LC-MS/MS analysis; assay type: ADME, organism-based; conditions: in vivo
[24] = Oral bioavailability in Sprague-Dawley rat at 2 mg/kg by LC-MS/MS analysis; assay type: ADME, organism-based; conditions: in vivo
[25] = AUC (0 to t) in Sprague-Dawley rat at 1 mg/kg, iv by LC-MS/MS analysis; assay type: ADME, organism-based; design: dose 1 mg/kg; conditions: in vivo
[26] = Half-life in Sprague-Dawley rat at 2 mg/kg, ig by LC-MS/MS analysis; assay type: ADME, organism-based; conditions: in vivo, po
[27] = AUC (0 to infinity) in Sprague-Dawley rat at 2 mg/kg, ig by LC-MS/MS analysis; assay type: ADME, organism-based; design: time infinity, route […], dose 2 mg/kg; conditions: in vivo, po
[28] = Tmax in Sprague-Dawley rat at 2 mg/kg, ig by LC-MS/MS analysis; assay type: ADME, organism-based; conditions: in vivo, po
Mus musculus [29] = experiment: Induction of erythropoiesis in po dosed C57BL/6 mouse assessed as increase in red blood cell count administered thrice for 3 days measured 4 hrs post last dose; assay type: functional, organism-based; conditions: dose mg/kg 5-50, time 72.0 hrs
[30] = In vivo inhibition of PHD2 in C57BL/6 mouse assessed as increase in EPO plasma level by measuring EPO level at 15 mg/kg, iv measured after 4 hrs by ELISA; assay type: functional
Mus musculus [31] = experiment: In vivo inhibition of PHD2 in po dosed C57BL/6 mouse assessed as upregulation of EPO plasma level administered 4 times for 3 days by ELISA; assay type: functional, organism-based; conditions: dose mg/kg 5-50, time 3.0 day
HUVEC = experiment: Cytotoxicity against human HUVEC cells assessed as reduction in cell viability at 10 to 100 uM incubated for 72 hrs by MTT assay; assay type: cell-based; conditions: dose 10-100 µM
Homo sapiens [32] = species on record: Homo sapiens; experiment: Selectivity index, ratio of IC50 for human ERG expressed in HEK293 cells by PatchLiner assay to IC50 for PHD2 (unknown origin) by O-phenyl enediamine(OPD) based fluorescence assay; assay type: cell-based
Homo sapiens [33] = species on record: Homo sapiens; experiment: Selectivity index, ratio of IC50 for KDM3A (unknown origin) in presence of peptide substrate incubated for 30 mins by alpha screen assay to IC50 for PHD2 (unknown origin) by O-phenyl enediamine(OPD) based fluorescence assay
Homo sapiens [34] = species on record: Homo sapiens; experiment: Selectivity index, ratio of IC50 for PHD3 (unknown origin) to IC50 for PHD2 (unknown origin) by O-phenyl enediamine(OPD) based fluorescence assay
Egl nine homolog 1 = Egl nine homolog 1 (Homo sapiens, UniProt Q9GZT9); experiment: Inhibition of FITC-HIF1alpha (556 to 574 residues) binding to PHD2 (181 to 426 residues) (unknown origin) by fluorescence polarization assay
Egl nine homolog 1, sequence (Q9GZT9 whole entry, the tested form may be a part): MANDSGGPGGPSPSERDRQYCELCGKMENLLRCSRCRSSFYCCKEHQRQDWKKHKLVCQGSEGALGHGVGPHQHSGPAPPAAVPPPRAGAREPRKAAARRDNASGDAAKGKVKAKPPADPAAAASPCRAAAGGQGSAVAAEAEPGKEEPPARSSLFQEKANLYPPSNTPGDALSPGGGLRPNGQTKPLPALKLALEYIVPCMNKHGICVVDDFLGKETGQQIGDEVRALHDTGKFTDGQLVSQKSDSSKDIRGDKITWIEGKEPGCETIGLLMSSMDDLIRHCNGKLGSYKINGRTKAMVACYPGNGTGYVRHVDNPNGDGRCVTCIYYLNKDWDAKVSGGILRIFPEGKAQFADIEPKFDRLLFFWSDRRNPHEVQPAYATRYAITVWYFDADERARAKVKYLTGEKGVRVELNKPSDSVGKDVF

Cytochrome P450 2C9, sequence (P11712 whole entry): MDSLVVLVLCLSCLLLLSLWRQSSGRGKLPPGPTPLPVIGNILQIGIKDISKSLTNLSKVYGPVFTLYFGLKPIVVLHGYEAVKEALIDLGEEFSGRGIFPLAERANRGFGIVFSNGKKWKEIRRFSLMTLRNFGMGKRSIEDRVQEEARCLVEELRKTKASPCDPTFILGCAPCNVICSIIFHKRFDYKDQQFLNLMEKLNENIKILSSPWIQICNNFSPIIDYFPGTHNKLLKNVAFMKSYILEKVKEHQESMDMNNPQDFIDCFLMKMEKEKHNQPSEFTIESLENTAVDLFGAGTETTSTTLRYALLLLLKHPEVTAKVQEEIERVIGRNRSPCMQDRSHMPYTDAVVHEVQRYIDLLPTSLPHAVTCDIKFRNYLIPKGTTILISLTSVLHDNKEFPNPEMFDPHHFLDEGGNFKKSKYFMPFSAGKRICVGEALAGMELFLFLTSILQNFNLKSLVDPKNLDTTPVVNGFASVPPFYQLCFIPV

## O=C(O)CNC(=O)c1ncc(C#CCOc2ccc(Cl)cc2)cc1O [DDO-3055]
[1]
  Activity: Non-Toxic
[2]
  Activity: Non-Toxic
[3]
  Activity: Non-Toxic
Mus musculus [4]
  Activity: 104.5%
Mus musculus [5]
  Activity: 83.3%
[6]
  AUC(0-t): 611 ng·h/mL
[7]
  Activity: Non-Toxic
[8]
  Activity: Non-Toxic
[9]
  Activity: Non-Toxic
[10]
  Activity: Non-Toxic
[11]
  Activity: Non-Toxic
[12]
  Activity: Non-Toxic
[13]
  Activity: Non-Toxic
[14]
  Activity: Non-Toxic
Cytochrome P450 2C9
  IC50: > 30000 nM
[15]
  half-life at 100 µM: 17.7 h
[16]
  half-life at 1 µM: > 1.65 h
[17]
  CLH: < 0.013 mL/min/kg
[18]
  CLH: < 0.01 mL/min/kg
[19]
  AUC(0-inf): 636 ng·h/mL
[20]
  AUC(0-t): 1360 ng·h/mL
[21]
  Cmax: 735 ng/mL
[22]
  half-life: 8.43 h
[23]
  clearance: 3.44 mL/min/kg
[24]
  bioavailability: 55.7%
[25]
  AUC(0-t): 4710 ng·h/mL
[26]
  half-life: 6.44 h
[27]
  AUC(0-inf): 5420 ng·h/mL
[28]
  Tmax: 0.63 h
Mus musculus [29]
  Activity: Dose-dependent effect
[30]
  Activity: >1000 pg/mL
Mus musculus [31]
  inhibition: Dose-dependent effect
HUVEC
  Activity: Non-Toxic
Homo sapiens [32]
  Ratio IC50: > 467
Homo sapiens [33]
  Ratio IC50: > 1560
Homo sapiens [34]
  Ratio IC50: 2.6
Egl nine homolog 1
  IC50: 64.2 nM
